This passage reports Ki results from BindingDB's records for doi:10.1016/j.bmc.2015.10.001 (Seoul National University, 2015).

The target in this assay is Transient receptor potential cation channel subfamily V member 1 (Homo sapiens, UniProt Q8NER1). Description: Antagonist activity at human TRPV1 heterologously expressed in CHO cells assessed as inhibition of capsaicin-induced activation by FLIPR assay.
Chain of Transient receptor potential cation channel subfamily V member 1 (Q8NER1 whole entry): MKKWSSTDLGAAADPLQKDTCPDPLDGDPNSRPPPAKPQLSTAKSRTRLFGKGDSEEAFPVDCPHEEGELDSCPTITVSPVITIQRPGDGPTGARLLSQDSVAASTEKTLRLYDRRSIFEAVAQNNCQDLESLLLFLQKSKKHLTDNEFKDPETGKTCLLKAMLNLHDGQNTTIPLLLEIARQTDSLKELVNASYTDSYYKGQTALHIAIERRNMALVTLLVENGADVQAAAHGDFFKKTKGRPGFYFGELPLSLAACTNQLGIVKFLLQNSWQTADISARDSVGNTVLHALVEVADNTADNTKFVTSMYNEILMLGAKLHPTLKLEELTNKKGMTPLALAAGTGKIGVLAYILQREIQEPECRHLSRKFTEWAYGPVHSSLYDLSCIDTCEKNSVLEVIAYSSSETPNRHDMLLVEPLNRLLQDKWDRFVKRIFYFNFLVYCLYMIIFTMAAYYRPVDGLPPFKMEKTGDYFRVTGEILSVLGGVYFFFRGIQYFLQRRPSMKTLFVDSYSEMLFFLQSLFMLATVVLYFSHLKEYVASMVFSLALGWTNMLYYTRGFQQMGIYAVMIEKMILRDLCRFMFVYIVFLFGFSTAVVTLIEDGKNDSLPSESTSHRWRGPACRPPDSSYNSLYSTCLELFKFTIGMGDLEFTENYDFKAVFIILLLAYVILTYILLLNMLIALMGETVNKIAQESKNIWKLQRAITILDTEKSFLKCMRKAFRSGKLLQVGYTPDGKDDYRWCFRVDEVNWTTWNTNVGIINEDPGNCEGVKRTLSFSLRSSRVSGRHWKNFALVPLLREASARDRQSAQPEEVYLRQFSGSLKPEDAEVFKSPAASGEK

What is called Ki is the equilibrium dissociation constant of an inhibitor or competing ligand from its target. On to `CCCCCOc1cc(C(F)(F)F)ccc1CNC(=O)C(C)c1ccc(NS(C)(=O)=O)c(F)c1` (stereo unspecified), for which the inhibition constant Ki was determined as 700 pM.
